Patent US10011595B2 (Merck Sharp & Dohme Corp., priority 2014, dated 2018)

What follows are compounds tested against human orexin-2 receptor (Homo sapiens (Human), UniProt O43614) (assay: FLIPR Ca2+ Flux Assay, orexin-2 receptor). Details: CHO cells expressing the human orexin-2 receptor; agonist 70 pM Ala-6,12 orexin-A; read-out: hOX2R FLIPR IC50.
Format: cell-based
Description: In a typical experiment the OX1 and OX2 receptor antagonistic activity of the compounds of the present invention was determined in accordance with the following experimental method. For intracellular calcium measurements, Chinese hamster ovary (CHO) cells expressing the rat orexin-1 receptor or the human orexin-2 receptor, are grown in Iscove's modified DMEM containing 2 mM L-glutamine, […], 1% hypoxanthine-thymidine supplement, 100 U/ml penicillin, 100 μg/ml streptomycin and 10% heat-inactivated fetal calf serum (FCS). The cells are seeded at 20,000 cells/well into Becton-Dickinson black 384-well clear bottom sterile plates coated with poly-D-lysine. All reagents were from GIBCO-Invitrogen Corp. The seeded plates are incubated overnight at 37° C. and 5% CO2. Ala-6,12 human orexin-A as the agonist is prepared as a 1 mM stock solution in 1% bovine serum albumin (BSA) and diluted in assay buffer (HBSS containing 20 mM HEPES, 0.1% BSA and 2.5 mM probenecid, pH7.4) for use in the assay at a final concentration of 70 pM. Test compounds are prepared as 10 mM stock solution in DMSO, then diluted in 384-well plates, first in DMSO, then assay buffer. On the day of the assay, cells are washed 3 times with 100 μl assay buffer and then incubated for 60 min (37° C., 5% CO2) in 60 μl assay buffer containing 1 μM Fluo-4AM ester, 0.02% pluronic acid, and 1% BSA. The dye loading solution is then aspirated and cells are washed 3 times with 100 μl assay buffer. 30 μl of that same buffer is left in each well. Within the Fluorescent Imaging Plate Reader (FLIPR, Molecular Devices), test compounds are added to the plate in a volume of 25 μl, incubated for 5 min and finally 25 μl of agonist is added. Fluorescence is measured for each well at 1 second intervals for 5 minutes and the height of each fluorescence peak is compared to the height of the fluorescence peak induced by 70 pM Ala-6,12 orexin-A with buffer in place of antagonist. For each antagonist, IC50 value (the concentration of compound needed to inhibit 50% of the agonist response) is determined. Alternatively, compound potency can be assessed by a radioligand binding assay (described in Bergman et. al. Bioorg. Med. Chem. Lett. 2008, 18, 1425-1430) in which the inhibition constant (Ki) is determined in membranes prepared from CHO cells expressing either the OX1 or OX2 receptor. The intrinsic orexin receptor antagonist activity of a compound which may be used in the present invention may be determined by these assays.

human orexin-2 receptor, sequence (O43614 whole entry): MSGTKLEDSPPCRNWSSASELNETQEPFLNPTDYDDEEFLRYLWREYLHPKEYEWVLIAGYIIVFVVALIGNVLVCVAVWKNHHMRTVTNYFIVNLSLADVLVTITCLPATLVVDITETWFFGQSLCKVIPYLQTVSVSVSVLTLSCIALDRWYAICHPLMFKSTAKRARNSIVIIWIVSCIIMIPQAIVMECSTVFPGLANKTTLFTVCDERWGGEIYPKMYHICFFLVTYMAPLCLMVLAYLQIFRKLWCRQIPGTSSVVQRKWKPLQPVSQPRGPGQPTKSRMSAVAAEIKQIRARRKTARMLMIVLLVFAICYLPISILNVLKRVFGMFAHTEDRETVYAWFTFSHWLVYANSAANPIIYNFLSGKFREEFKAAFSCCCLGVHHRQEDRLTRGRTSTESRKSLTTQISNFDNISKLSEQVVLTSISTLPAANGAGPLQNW

| SMILES | IC50 [µM] |
| --- | --- |
| CCN(CCN(C)c1cc(C#N)ccn1)C(=O)c1ccccc1-n1cc(C)nn1 [Example F-21, N-{2-[(4-cyanopyridin-2-yl)(methyl)amino]ethyl}-N-ethyl-2-(4-methyl-1H-1,2,3-triazol-1-yl)benzamide] | 0.341 |
| CCN(CCN(C)c1cc(C#N)ccn1)C(=O)c1ccccc1N1CCCC1 [Example F-22, N-{2-[(4-cyanopyridin-2-yl)(methyl)amino]ethyl}-N-ethyl-2-pyrrolidin-1-ylbenzamide] | 0.0318 |
| CCN(CCN(C)c1cc(C#N)ccn1)C(=O)c1cccc2oc(=O)[nH]c12 [Example F-23, N-{2-[(4-cyanopyridin-2-yl)(methyl)amino]ethyl}-N-ethyl-2-oxo-2,3-dihydro-1,3-benzoxazole-4-carboxamide] | 10 |
| CCN(CCN(C)c1cc(C#N)ccn1)C(=O)c1ccccc1-c1ncc[nH]1 [Example F-24, N-{2-[(4-cyanopyridin-2-yl)(methyl)amino]ethyl}-N-ethyl-2-(1H-imidazol-2-yl)benzamide] | 1.63 |
| CCN(CCN(C)c1cc(C#N)ccn1)C(=O)c1ccccc1-n1cnnn1 [Example F-25, N-{2-[(4-cyanopyridin-2-yl)(methyl)amino]ethyl}-N-ethyl-2-(1H-tetrazol-1-yl)benzamide] | 4.39 |
| CCN(CCN(C)c1cc(C#N)ccn1)C(=O)c1ccccc1C1(C#N)CC1 [Example F-26, 2-(1-cyanocyclopropyl)-N-{2-[(4-cyanopyridin-2-yl)(methyl)amino]ethyl}-N-ethylbenzamide] | 0.0189 |
| CCN(CCN(C)c1cc(C#N)ccn1)C(=O)c1ccccc1-c1nc(C)no1 [Example F-27, N-{2-[(4-cyanopyridin-2-yl)(methyl)amino]ethyl}-N-ethyl-2-(3-methyl-1,2,4-oxadiazol-5-yl)benzamide] | 0.024 |
| CCN(CCN(C)c1cc(C#N)ccn1)C(=O)c1ccccc1-n1ccnn1 [Example F-28, N-{2-[(4-cyanopyridin-2-yl)(methyl)amino]ethyl}-N-ethyl-2-(1H-1,2,3-triazol-1-yl)benzamide] | 0.461 |
| CCOc1cccc(C(=O)N(CC)CCN(C)c2cc(C#N)ccn2)c1OC [Example F-29, N-{2-[(4-cyanopyridin-2-yl)(methyl)amino]ethyl}-3-ethoxy-N-ethyl-2-methoxybenzamide] | 10 |
| CCN(CCN(C)c1cc(C#N)ccn1)C(=O)c1cc(F)ccc1-n1nccn1 [Example F-30, N-{2-[(4-cyanopyridin-2-yl)(methyl)amino]ethyl}-N-ethyl-5-fluoro-2-(2H-1,2,3-triazol-2-yl)benzamide] | 0.0244 |
| CCN(CCN(C)c1cc(C#N)ccn1)C(=O)c1ccc(OCC(F)(F)F)nc1 [Example F-31, N-{2-[(4-cyanopyridin-2-yl)(methyl)amino]ethyl}-N-ethyl-6-(2,2,2-trifluoroethoxy)pyridine-3-carboxamide] | 10 |
| CN(CCN(C)c1cc(C#N)ccn1)C(=O)c1ccccc1-n1nccn1 [Example G-1, N-(2-((4-cyanopyridin-2-yl)(methyl)amino)ethyl)-N-methyl-2-(2H-1,2,3-triazol-2-yl)benzamide] | 0.088 |
| CCCN(CCN(C)c1cc(C#N)ccn1)C(=O)c1ccccc1-n1nccn1 [Example G-4, N-(2-((4-cyanopyridin-2-yl)(methyl)amino)ethyl)-N-propyl-2-(2H-1,2,3-triazol-2-yl)benzamide] | 0.0121 |
| CCCCN(CCN(C)c1cc(C#N)ccn1)C(=O)c1ccccc1-n1nccn1 [Example G-5, N-butyl-N-(2-((4-cyanopyridin-2-yl)(methyl)amino)ethyl)-2-(2H-1,2,3-triazol-2-yl)benzamide] | 0.0198 |
| CN(CCN(Cc1ccccc1)C(=O)c1ccccc1-n1nccn1)c1cc(C#N)ccn1 [Example G-6, N-benzyl-N-(2-((4-cyanopyridin-2-yl)(methyl)amino)ethyl)-2-(2H-1,2,3-triazol-2-yl)benzamide] | 0.112 |
| CN(CCN(CC1CC1)C(=O)c1ccccc1-n1nccn1)c1cc(C#N)ccn1 [Example G-7, N-(2-((4-cyanopyridin-2-yl)(methyl)amino)ethyl)-N-(cycloproplmethyl)-2-(2H-1,2,3-triazol-2-yl)benzamide] | 0.0358 |

| SMILES | IC50 [µM] |
| --- | --- |
| CC(C)CN(CCN(C)c1cc(C#N)ccn1)C(=O)c1ccccc1-n1nccn1 [Example G-8, N-(2-((4-cyanopyridin-2-yl)(methyl)amino)ethyl)-N-isobutyl-2-(2H-1,2,3-triazol-2-yl)benzamide] | 0.0122 |
| CC(C)N(CCN(C)c1cc(C#N)ccn1)C(=O)c1ccccc1-n1nccn1 [Example G-9, N-(2-((4-cyanopyridin-2-yl)(methyl)amino)ethyl)-N-isopropyl-2-(2H-1,2,3-triazol-2-yl)benzamide] | 0.0765 |
| CCN(CCN(C)c1nccc(C(C)(C)O)n1)C(=O)c1ccccc1-n1nccn1 [Example H-1, N-ethyl-N-(2-((4-(2-hydroxypropan-2-yl)pyrimidin-2-yl)(methy)amino)ethyl)-2-(2H-1,2,3-triazol-2-yl)benzamide] | 0.011 |
| CCN(CCN(C)c1nccc(C(C)(C)O)n1)C(=O)c1cccnc1OC(C)C [Example H-14, N-ethyl-N-(2-((4-(2-hydroxypropan-2-yl)pyrimidin-2-yl)(methyl)amino)ethyl)-2-isopropoxynicotinamide] | 0.0654 |
| CCOc1ncccc1C(=O)N(CC)CCN(C)c1nccc(C(C)(C)O)n1 [Example H-15, 2-ethoxy-N-ethyl-N-(2-((4-(2-hydroxypropan-2-yl)pyrimidin-2-yl)(methyl)amino)ethyl) nicotinamide] | 0.0773 |
| CCN(CCN(C)c1nccc(C(C)(C)O)n1)C(=O)c1cccnc1OCC(F)F [Example H-16, 2-(2,2-difluoroethoxy)-N-ethyl-N-(2-((4-(2-hydroxypropan-2-yl)pyrimidin-2-yl)(methyl)amino)ethyl) nicotinamide] | 0.0242 |
| CCN(CCN(C)c1nccc(C(C)(C)O)n1)C(=O)c1cccnc1OCC(F)(F)F [Example H-17] | 0.0217 |
| CCN(CCN(C)c1nccc(C(C)(C)O)n1)C(=O)c1ccccc1OC(F)F [Example H-18, 2-(difluoromethoxy)-N-ethyl-N-(2-((4-(2-hydroxypropan-2-yl)pyrimidin-2-yl)(methyl)amino)ethyl) benzamide] | 0.0493 |
| CCCc1ccccc1C(=O)N(CC)CCN(C)c1nccc(C(C)(C)O)n1 [Example H-19, N-ethyl-N-(2-((4-(2-hydroxypropan-2-yl)pyrimidin-2-yl)(methyl)amino)ethyl)-2-propylbenzamide] | 0.0131 |
| CCN(CCN(C)c1nccc(C(C)(C)O)n1)C(=O)c1ccccc1OCC(F)(F)F [Example H-20, N-ethyl-N-(2-((4-(2-hydroxypropan-2-yl)pyrimidin-2-yl)(methyl)amino)ethyl)-2-(2,2,2-trifluoroethoxy)benzamide] | 0.032 |
| CCN(CCN(C)c1nccc(C(C)(C)O)n1)C(=O)c1ccccc1CC(F)(F)F [Example H-21, N-ethyl-N-(2-((4-(2-hydroxypropan-2-yl)pyrimidin-2-yl)(methyl)amino)ethyl)-2-(2,2,2-trifluoroethyl)benzamide] | 0.018 |
| CCN(CCN(C)c1nccc(C(C)(C)O)n1)C(=O)c1ccccc1OCC(F)F [Example H-22, 2-(2,2-difluoroethoxy)-N-ethyl-N-(2-((4-(2-hydroxypropan-2-yl)pyrimidin-2-yl)(methyl)amino)ethyl) benzamide] | 0.0177 |
| CCN(CCN(C)c1nccc(C(C)(C)O)n1)C(=O)c1cccnc1CC(F)(F)F [Example H-23, N-ethyl-N-(2-((4-(2-hydroxypropan-2-yl)pyrimidin-2-yl)(methyl)amino)ethyl)-2-(2,2,2-trifluoroethyl)nicotinamide] | 0.179 |
| CCN(CCN(C)c1nccc(C(C)(C)O)n1)C(=O)c1ccccc1CC(F)F [Example H-24, 2-(2,2-difluoroethyl)-N-ethyl-N-(2-((4-(2-hydroxypropan-2-yl)pyrimidin-2-yl)(methyl)amino)ethyl) benzamide] | 0.0206 |
| CCN(CCN(C)c1nccc(C(C)(C)O)n1)C(=O)c1ccccc1C1CC1 [Example H-25, 2-cyclopropyl-N-ethyl-N-(2-((4-(2-hydroxypropan-2-yl)pyrimidin-2-yl)(methyl)amino)ethyl) benzamide] | 0.0091 |
| CCN(CCN(C)c1nccc(C(C)(C)O)n1)C(=O)c1ccccc1C1CC1(F)F (centres unmarked) [Example H-26, 2-(2,2-difluorocyclopropyl)-N-ethyl-N-(2-((4-(2-hydroxypropan-2-yl)pyrimidin-2-yl)(methyl)amino)ethyl) benzamide] | 0.0169 |
